Assay results as given in CN103800339A, “一类治疗精神分裂症的化合物及其用途” (Individual, priority 2012, dated 2014).

Tested on: ketamine schizophrenia model rats (大鼠分裂症氯胺酮模型大鼠)
Assay: Social interaction test in ketamine-induced schizophrenia model rats (total activity time, aggressive and non-aggressive behaviour)
Format: in vivo, rat
Conditions: n=20, mean±SD
[1] = day of drug withdrawal, after 7 days i.m. dosing (compounds A-E 1 mg/kg; risperidone 2 mg/kg), ketamine model Wistar rats, 7 min test, * P<0.05, ** P<0.01 vs model

SMILES: Cc1nc2n(c(=O)c1CCN1CCC(c3noc4cc(F)ccc34)CC1)CCCC2 [利培酮]
- total activity time (7 days after drug withdrawal, after 7 days i.m. dosing (compounds A-E 1 mg/kg; risperidone 2 mg/kg), ketamine model Wistar rats, 7 min test, * P<0.05, ** P<0.01 vs model): 18.2±6.3
- total activity time (before dosing (baseline), male Wistar rats, ketamine 30 mg/kg i.p. 5 days): 13.9±2.9
- number of aggressive behaviours [1]: 3.1±1.5
- number of non-aggressive behaviours [1]: 6.3±3.9
- total activity time [1]: 23.2±6.1
